Calls of active or inactive are those of the source.

In one series the test system is Jurkat. In words: blockers of NF-kB activation in T cells – Jurkat, luciferase reporter, luminescence, B- and T-cell, dose response (AID 489004).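 Further: NF-kB luciferase reporter Jurkat cells stimulated with PMA plus ionomycin.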 The format is functional, cell-based. The settings on record: Homo sapiens. A general note: A reporter such as luciferase makes a cellular process visible.
A short description of series [1]: HEK-293T viability loss, compound-treated – cell-based, uHTS hits, cytotoxicity control for B/T-cell NF-kB inhibitor project, dose response (AID 489019).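 Further: IC50 reflects cytotoxicity as loss of cell viability.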 The format is functional.
Series [2] deals with Beta-2 adrenergic receptor (Homo sapiens, UniProt P07550). In words: ADRB2 activation measured by internalization – cell-based, FAP fluorogen, flow cytometry, cherry pick 1, dose response (AID 588763). It counts as functional. Background: Flow cytometry measures light scatter and fluorescence of single cells or particles in a stream.
The target of a further series is Cytochrome P450 2C19 (Homo sapiens, UniProt P33261). Description: Cytochrome panel assay with activity outcomes. Panel member name: p450-cyp2c19 Compounds with AC50 equal or less than 10 uM are considered active. It counts as functional. The settings on record: read-out: AC50.
In series [3] the test system is BJ. Description: cells. The format is functional, cell-based. Conditions: Homo sapiens.
A further series deals with Cytochrome P450 2C9 (Homo sapiens, UniProt P11712).
Series [4] deals with BJ. In words: growth inhibition of engineered Ras-driven BJ cells – cell-based, alamar blue fluorescence, cherrypicked samples, dose response (AID 2631).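 Further: confirmatory dose-response assay in RAS-dependent BJ fibroblasts engineered with TERT, LT and ST, with cytotoxicity read by fluorescence.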 It counts as functional. The settings on record: Homo sapiens. A general note: Alamar Blue is a resazurin reagent that responds to reducing activity.
Series [5] concerns BJ. In words: BJ-TERT fibroblast viability loss – cell-based, RAS-independent, luminescence, dose response (AID 1933). The format is functional. Conditions: Homo sapiens.
The nature of series [6]: DRD fibroblast viability loss – cell-based, non-viral oncogenic, luminescence, dose response (AID 1934). The settings on record: Homo sapiens. It counts as functional.
The test system of a further series is INS1. In words: INS-1E survival protection against cytokine death – cell-based, luminescence, retest, dose response (AID 449756).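 Further: cell death triggered by IL-1 beta plus TNF-alpha plus IFN-gamma mixture; protective hits raise ATP signal compared with cytokine alone wells.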 Conditions: Rattus norvegicus. It counts as functional.
Series [7] concerns BJ. In words: BJ-TERT-LT-ST fibroblast viability loss – cell-based, RAS-independent, luminescence, dose response (AID 1935).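 Further: BJ fibroblasts immortalized with TERT plus LT and ST oncogenes.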 It counts as functional. Conditions: Homo sapiens.
A further series concerns the target Cytochrome P450 3A4 (Homo sapiens, UniProt P08684).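 Further: CYP3A4 tested as one member of a cytochrome P450 panel screen.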
For series [8], the target named is Glucose-6-phosphate 1-dehydrogenase (Homo sapiens, UniProt P11413). In words: inhibition of Homo sapiens G6PD, dose series – biochemical, fluorescence, selectivity assay for P. falciparum G6PD inhibitor project, dose response (AID 504792). The format is functional.
The nature of series [9]: Trypanosoma cruzi growth suppression in host cells – NIH3T3 host cells, beta-gal luminescence, confirmation (AID 2044).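 Further: intracellular parasites grown in NIH/3T3 mouse fibroblasts as host cells; luminescent beta-galactosidase reporter signal from transgenic T. cruzi replicating inside host cells; inhibitors lower the luminescence signal.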 The format is functional, cell-based.
Series [10] deals with T1, Polyadenylate-binding protein 1 (Homo sapiens, UniProt P11940). Description: MLLE binding blockers, Cy5 peptide tracer – biochemical, fluorescence polarization, Cy5-PAM2 peptide, secondary, miRNA deadenylation inhibitor project, dose response (AID 602260). It counts as functional. Conditions: read-out: IC50_Mean.
The target in a further series is Genome polyprotein (dengue virus type 2, UniProt P29990). Description: flavivirus cap methylation enzyme inhibition – biochemical, confirmation dose response, primary screen (AID 588689). The format is functional.
For series [11], the target named is T1, Polyadenylate-binding protein 1. Description: MLLE domain peptide-binding blockers, IC50 – biochemical, fluorescence polarization, FITC-PAM2 peptide, dose response (AID 602259). The format is functional. Conditions: read-out: IC50_Mean.
The nature of series [12]: NIH3T3 cell viability loss – ATP luminescence, mouse fibroblasts, counter-screen, dose response (AID 2010).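 Further: cells exposed to compound for about 90 hours before reading.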 It counts as functional, cell-based. The settings on record: NIH3T3.
In a further series the target is Beta-galactosidase (Escherichia coli, UniProt Q8VNN2). Description: detection-enzyme interference by beta-gal modulators – biochemical, E. coli enzyme, set 3, artefact control for CCR6 antagonist project, dose response (AID 504712). It counts as functional.
A further series addresses Cytochrome P450 2D6 (Homo sapiens, UniProt P10635).
The target in series [13] is T2, Dual specificity protein phosphatase 3 (Homo sapiens, UniProt P51452). Description: SAR VHR1 absorbance Assay for In Vitro dose response studies. [Related pubchem assays (depositor defined):AID1654, AID1661, AID1878, AID1992, AID2004].
The target in series [14] is Dual specificity protein phosphatase 6 (Rattus norvegicus, UniProt Q64346). It counts as functional.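 Further: confirmatory in vitro dose-response testing of MKP-3 inhibition; recombinant His-tagged MKP-3 made in E. coli BL21 with OMFP substrate.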
The target in series [15] is T3, Tyrosine-protein phosphatase non-receptor type 7 (Homo sapiens, UniProt P35236).
T3 sequence (P35236 whole entry): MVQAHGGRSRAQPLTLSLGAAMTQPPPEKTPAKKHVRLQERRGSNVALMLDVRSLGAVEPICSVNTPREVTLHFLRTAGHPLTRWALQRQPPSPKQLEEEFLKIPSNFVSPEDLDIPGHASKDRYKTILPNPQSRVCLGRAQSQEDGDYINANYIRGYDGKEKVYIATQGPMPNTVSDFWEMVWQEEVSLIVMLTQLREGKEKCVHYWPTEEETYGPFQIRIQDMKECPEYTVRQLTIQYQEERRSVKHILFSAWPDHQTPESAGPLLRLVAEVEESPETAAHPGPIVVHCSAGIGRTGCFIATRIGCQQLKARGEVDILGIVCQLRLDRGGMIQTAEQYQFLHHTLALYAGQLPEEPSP
In words: redox-active compounds inhibiting HePTP phosphatase – biochemical, fluorescence, mechanism study (AID 2068). The format is functional.

Series [16] deals with T2, Dual specificity protein phosphatase 3. Description: SAR VHR1 Fluorescent Assay for In Vitro dose response studies. [Related pubchem assays (depositor defined):AID1654, AID1661, AID1878, AID1992, AID2004, AID2070, AID2085]. The format is functional.
Series [17] concerns the target T4, Hexokinase-1 (Homo sapiens, UniProt P19367).
T4 sequence (P19367 whole entry): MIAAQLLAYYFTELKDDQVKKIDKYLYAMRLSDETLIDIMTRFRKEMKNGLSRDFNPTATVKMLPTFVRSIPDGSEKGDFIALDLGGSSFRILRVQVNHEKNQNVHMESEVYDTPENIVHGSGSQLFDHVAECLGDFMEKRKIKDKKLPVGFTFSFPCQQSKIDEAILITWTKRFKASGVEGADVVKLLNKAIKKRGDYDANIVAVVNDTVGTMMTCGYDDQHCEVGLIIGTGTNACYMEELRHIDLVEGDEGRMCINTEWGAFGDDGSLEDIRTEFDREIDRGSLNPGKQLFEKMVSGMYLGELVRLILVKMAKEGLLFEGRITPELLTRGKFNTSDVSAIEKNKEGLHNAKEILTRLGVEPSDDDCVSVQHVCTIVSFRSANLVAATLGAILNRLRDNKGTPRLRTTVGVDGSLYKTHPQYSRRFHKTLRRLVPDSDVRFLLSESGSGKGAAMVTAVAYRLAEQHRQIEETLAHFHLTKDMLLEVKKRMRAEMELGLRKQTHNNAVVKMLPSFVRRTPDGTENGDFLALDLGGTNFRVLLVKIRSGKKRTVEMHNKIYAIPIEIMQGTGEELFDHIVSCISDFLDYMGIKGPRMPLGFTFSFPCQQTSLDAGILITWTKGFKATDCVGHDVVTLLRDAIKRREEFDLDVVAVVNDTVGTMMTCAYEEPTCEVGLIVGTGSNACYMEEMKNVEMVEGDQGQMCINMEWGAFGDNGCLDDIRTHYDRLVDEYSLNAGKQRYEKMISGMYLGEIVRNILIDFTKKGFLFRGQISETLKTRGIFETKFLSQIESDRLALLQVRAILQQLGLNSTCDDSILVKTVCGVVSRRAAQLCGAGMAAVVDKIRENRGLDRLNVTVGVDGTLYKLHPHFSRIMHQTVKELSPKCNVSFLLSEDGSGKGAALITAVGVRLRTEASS
Description: SAR analysis of small molecule inhibitors of hexokinase domain containing I (HKDC1) in the hexokinase 1 selectivity assay. [Related pubchem assays (depositor defined):AID493160, AID493190]. It counts as functional.

In series [18] the target is T5, Hexokinase HKDC1 (Homo sapiens, UniProt Q2TB90).
T5 sequence (Q2TB90 whole entry): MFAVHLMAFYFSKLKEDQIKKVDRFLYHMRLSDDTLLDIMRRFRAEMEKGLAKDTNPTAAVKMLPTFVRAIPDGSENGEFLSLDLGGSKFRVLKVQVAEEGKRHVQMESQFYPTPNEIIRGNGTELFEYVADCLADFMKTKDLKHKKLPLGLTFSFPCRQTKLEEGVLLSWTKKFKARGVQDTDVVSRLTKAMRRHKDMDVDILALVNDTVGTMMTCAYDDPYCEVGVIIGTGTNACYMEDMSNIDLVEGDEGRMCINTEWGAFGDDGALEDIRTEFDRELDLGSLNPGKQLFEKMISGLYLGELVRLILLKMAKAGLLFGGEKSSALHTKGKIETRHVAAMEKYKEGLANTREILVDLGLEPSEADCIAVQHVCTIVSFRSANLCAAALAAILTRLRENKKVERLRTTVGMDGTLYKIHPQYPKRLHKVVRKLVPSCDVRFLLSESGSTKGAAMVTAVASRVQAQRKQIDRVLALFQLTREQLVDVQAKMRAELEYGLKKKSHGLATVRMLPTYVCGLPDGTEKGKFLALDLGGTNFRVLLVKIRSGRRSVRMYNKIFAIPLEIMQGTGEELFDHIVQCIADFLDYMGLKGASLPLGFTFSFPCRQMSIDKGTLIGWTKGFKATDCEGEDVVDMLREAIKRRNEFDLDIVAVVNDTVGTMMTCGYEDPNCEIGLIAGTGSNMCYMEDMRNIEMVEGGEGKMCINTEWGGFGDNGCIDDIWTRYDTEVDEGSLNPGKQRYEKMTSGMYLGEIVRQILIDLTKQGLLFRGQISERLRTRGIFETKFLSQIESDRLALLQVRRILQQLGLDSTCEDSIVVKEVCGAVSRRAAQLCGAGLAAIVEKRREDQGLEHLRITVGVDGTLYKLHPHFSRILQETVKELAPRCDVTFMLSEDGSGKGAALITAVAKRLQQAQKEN
In words: SAR analysis of small molecule inhibitors of hexokinase domain containing I (HKDC1). [Related pubchem assays (depositor defined):AID493160, AID493190]. It counts as functional.

Series [19] deals with T5, Hexokinase HKDC1. In words: analog inhibition of human HKDC1 activity – biochemical, set 2, SAR follow-up (AID 588355). It counts as functional.
The target in series [20] is T4, Hexokinase-1. In words: hexokinase 1 activity inhibitors, potency – biochemical, set 2, resazurin fluorescence coupled readout, selectivity assay for HKDC1 inhibitor project, SAR follow-up (AID 588356). It counts as functional.
A further series deals with T6, Cytochrome P450 1A2 (Homo sapiens, UniProt P05177).
T6 sequence (P05177 whole entry): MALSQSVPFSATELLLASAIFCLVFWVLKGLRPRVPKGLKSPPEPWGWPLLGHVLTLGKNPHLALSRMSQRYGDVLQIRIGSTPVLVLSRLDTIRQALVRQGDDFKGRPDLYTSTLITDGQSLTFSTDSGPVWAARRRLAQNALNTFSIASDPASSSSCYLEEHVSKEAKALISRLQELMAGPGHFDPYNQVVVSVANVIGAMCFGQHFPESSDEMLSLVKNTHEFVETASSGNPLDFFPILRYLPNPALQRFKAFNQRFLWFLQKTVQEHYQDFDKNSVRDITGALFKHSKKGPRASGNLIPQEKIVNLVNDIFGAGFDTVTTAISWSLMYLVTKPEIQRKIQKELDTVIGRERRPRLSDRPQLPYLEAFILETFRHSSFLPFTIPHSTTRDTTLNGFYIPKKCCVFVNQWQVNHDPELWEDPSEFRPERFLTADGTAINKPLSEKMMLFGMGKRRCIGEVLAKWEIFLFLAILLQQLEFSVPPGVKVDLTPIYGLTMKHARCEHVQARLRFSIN

Series [21] concerns the target Voltage-gated inwardly rectifying potassium channel KCNH2 (Homo sapiens, UniProt Q12809). Conditions: Potency.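 Further: confirmatory quantitative high-throughput screen measuring inhibition of hERG channel activity.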

T1 sequence (P11940 whole entry): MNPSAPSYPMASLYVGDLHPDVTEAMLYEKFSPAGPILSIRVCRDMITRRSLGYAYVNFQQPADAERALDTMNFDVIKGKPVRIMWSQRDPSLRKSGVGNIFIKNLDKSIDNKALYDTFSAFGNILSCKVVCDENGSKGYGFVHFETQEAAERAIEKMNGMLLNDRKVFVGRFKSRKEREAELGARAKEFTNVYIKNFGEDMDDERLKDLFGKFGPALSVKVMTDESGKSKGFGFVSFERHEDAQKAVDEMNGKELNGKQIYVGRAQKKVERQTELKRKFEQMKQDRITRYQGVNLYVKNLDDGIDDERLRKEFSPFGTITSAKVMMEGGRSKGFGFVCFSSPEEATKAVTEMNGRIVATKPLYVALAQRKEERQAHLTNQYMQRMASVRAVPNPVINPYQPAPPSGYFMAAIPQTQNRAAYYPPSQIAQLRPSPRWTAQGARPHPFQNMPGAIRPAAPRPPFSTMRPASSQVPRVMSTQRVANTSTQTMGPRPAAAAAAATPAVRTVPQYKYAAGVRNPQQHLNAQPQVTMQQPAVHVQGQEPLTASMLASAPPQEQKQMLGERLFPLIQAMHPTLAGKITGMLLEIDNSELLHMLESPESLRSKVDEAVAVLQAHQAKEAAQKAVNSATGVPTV
T2 sequence (P51452 whole entry): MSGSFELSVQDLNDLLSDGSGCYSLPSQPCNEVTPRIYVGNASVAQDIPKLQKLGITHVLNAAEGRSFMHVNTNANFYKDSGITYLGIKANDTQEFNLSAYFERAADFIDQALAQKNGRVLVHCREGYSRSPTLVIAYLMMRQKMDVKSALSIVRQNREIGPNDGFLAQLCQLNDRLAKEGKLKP
Chain of Glucose-6-phosphate 1-dehydrogenase (P11413 whole entry): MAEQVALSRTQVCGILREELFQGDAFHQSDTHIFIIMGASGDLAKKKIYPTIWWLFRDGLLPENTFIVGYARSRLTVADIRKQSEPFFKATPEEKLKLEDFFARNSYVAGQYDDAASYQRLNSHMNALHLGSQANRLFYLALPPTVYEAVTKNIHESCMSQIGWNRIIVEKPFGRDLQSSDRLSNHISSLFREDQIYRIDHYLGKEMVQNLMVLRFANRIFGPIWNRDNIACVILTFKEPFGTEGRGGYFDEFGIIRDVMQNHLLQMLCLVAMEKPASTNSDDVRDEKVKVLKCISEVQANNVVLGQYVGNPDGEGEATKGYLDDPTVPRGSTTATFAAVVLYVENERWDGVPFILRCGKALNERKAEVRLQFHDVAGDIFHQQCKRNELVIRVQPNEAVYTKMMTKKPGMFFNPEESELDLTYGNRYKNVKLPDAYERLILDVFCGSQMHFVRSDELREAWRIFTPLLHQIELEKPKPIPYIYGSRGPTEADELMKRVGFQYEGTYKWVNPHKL
Chain of Dual specificity protein phosphatase 6 (Q64346 whole entry): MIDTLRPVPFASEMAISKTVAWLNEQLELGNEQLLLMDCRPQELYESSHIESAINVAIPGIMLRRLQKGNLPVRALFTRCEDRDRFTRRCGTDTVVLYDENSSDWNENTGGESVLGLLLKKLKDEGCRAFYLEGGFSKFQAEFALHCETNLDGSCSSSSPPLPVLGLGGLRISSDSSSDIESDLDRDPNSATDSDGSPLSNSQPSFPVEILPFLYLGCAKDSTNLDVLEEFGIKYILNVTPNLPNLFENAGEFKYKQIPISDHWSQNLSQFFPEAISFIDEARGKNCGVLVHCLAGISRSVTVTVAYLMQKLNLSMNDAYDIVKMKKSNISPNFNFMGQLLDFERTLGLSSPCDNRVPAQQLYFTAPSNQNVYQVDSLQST
Chain of Beta-2 adrenergic receptor (P07550 whole entry): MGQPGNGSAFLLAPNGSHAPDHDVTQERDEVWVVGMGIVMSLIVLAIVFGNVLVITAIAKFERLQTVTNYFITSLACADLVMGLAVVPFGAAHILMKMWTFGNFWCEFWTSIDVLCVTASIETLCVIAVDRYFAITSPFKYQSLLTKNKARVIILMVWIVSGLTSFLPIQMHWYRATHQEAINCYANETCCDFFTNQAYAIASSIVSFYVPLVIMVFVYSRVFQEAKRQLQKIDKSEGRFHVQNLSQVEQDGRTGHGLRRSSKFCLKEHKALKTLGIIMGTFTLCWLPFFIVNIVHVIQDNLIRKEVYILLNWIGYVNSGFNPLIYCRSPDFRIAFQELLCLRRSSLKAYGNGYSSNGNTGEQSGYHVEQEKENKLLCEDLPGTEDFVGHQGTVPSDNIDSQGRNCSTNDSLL
Chain of Cytochrome P450 2C9 (P11712 whole entry): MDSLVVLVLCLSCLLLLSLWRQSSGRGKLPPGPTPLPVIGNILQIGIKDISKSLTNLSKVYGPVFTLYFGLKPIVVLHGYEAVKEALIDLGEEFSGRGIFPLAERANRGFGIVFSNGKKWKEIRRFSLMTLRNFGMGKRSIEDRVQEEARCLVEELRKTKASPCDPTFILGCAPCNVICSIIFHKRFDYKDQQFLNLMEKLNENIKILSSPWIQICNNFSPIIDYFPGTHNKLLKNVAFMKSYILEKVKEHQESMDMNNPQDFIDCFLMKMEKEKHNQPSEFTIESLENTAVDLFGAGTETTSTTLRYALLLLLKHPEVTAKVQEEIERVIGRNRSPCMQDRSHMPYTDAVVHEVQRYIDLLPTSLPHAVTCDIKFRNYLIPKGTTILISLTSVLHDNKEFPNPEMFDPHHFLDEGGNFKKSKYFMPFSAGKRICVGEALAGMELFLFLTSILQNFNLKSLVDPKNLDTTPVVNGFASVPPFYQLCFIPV
Chain of Beta-galactosidase (Q8VNN2 whole entry): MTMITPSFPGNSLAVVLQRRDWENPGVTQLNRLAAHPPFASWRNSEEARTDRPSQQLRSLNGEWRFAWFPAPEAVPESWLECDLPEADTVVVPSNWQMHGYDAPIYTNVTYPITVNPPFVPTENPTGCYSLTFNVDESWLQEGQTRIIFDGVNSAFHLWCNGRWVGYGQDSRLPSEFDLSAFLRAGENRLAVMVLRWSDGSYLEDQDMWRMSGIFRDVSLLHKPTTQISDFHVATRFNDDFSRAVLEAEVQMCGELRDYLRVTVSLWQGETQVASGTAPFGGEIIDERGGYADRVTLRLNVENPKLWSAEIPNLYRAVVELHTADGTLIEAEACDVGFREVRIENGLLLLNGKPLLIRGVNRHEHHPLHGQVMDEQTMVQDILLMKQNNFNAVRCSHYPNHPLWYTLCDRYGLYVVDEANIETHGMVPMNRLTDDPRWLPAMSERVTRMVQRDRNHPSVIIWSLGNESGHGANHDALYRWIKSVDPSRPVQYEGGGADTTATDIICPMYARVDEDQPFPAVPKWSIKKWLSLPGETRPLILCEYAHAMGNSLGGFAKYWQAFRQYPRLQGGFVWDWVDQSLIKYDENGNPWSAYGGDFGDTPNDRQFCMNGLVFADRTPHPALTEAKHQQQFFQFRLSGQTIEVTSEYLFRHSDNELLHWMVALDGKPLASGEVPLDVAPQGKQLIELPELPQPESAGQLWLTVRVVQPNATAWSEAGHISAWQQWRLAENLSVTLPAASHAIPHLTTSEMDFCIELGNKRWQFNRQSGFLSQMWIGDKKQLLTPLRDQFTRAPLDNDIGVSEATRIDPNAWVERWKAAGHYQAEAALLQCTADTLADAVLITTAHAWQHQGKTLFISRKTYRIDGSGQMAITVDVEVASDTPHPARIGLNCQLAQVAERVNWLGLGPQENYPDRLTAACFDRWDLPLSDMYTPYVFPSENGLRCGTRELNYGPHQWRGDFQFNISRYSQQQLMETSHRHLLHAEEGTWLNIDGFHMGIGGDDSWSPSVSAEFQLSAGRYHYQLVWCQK
Chain of Cytochrome P450 2C19 (P33261 whole entry): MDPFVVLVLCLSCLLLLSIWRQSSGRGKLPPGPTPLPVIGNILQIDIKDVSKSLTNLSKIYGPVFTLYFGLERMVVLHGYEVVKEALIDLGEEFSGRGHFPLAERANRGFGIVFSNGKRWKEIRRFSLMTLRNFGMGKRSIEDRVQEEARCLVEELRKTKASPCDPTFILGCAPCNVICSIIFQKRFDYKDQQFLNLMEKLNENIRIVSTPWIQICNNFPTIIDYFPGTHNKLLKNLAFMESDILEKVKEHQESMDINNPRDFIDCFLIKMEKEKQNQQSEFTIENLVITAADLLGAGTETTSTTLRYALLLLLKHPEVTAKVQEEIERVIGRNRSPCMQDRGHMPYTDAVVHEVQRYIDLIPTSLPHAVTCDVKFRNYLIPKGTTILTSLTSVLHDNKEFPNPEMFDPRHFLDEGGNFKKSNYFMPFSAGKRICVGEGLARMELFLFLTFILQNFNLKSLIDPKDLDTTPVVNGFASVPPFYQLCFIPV
Chain of Cytochrome P450 3A4 (P08684 whole entry): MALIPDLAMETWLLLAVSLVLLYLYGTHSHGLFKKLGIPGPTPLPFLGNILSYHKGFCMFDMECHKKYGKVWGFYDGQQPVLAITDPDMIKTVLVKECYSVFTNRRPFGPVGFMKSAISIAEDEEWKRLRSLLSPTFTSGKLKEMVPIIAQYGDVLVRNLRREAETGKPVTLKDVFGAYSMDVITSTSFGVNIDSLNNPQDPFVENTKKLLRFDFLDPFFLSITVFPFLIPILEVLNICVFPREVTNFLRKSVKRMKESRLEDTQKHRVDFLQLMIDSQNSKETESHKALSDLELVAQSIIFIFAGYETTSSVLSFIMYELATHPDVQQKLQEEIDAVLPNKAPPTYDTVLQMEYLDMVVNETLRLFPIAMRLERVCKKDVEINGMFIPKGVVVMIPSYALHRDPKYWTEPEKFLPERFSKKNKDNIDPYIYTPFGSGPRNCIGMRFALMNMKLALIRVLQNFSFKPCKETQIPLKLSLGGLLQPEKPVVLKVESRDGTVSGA

`Cc1cc(NNC(=O)Nc2cccc(Cl)c2)nc2c1c(C)nn2C`: the figures for the IC50 (in the series with Jurkat; in series [1]) were 46.2 µM (inactive) and > 80 µM (inactive), respectively.
Turning to `O=C(Cc1ccccc1)NC1(Cc2ccc(O)cc2)CCCCC1`, the EC50 (usually the midpoint of the concentration-response curve) in series [2] was 7.47 µM (active).
For the molecule `O=C(COc1ccc([N+](=O)[O-])cc1)Nc1ccc(C(=O)NCc2cccnc2)cc1`, the half-maximal activity concentration (AC50) (commonly the midpoint of the concentration-response curve, whichever way the signal moves) at Cytochrome P450 2C19 is 7.94 µM (inconclusive); at Cytochrome P450 2C9, 22.4 µM (inconclusive); with INS1, < 0.195 µM (active). The concentration for a half-maximal effect (EC50) in the series with BJ [3] was 12.8 µM (inconclusive); with BJ [4], 2.51 µM (inconclusive); in the series on BJ [5] it was > 150 µM (not active); in series [6] it was > 150 µM (not active); in the series on BJ [7] it was > 150 µM (not active).
As to `Cc1cc(O)c(-c2cc(O)c(C)cc2O)cc1O`, the results for the AC50 at Cytochrome P450 3A4 and on Cytochrome P450 2D6 were 1.58 µM (inconclusive) and “inconclusive”, respectively. Besides, the IC50 was 11.1 µM (active) in series [8]; > 66 µM (inactive) in [10]; 39.8 µM (active) on Genome polyprotein; > 66 µM (inactive) in series [11]; > 66.6 µM (inactive) on Beta-galactosidase. Moreover, the results for the EC50 in series [9] and in series [12] were 2.37 µM (active) and 4.13 µM (active), respectively.
Consider `CN(C)C(=O)c1cn(CCOc2ccccc2)c2ccccc12`, for which the IC50 in [13], in [14], in [15] and in [16] was > 100 µM (inactive) each time.
On to `O=C(O)CCSc1cc(NS(=O)(=O)c2ccccc2)c2ccccc2c1O`, for which the IC50 at Hexokinase-1 [17] is 62.4 µM (inactive); at Hexokinase HKDC1 [18] it was 7.53 µM (active).
In the case of `Cc1ccccc1N1C(=O)c2ccccc2C1Nc1ccc(Cl)cc1` (stereo not given), the IC50 on Hexokinase HKDC1 [19] and on Hexokinase-1 [20] was > 80 µM (inactive) in each case.
For `CC(=O)N[C@@H](Cc1c[nH]c2ccccc12)C(=O)OCc1cc(C(F)(F)F)cc(C(F)(F)F)c1` [L-732138], the AC50 at Cytochrome P450 1A2 is 31.6 µM (inconclusive); in [21], 12.6 µM (inconclusive).

The values above are taken from ChEMBL document CHEMBL1201862, “PubChem BioAssay data set” (2004).
